Experimental data reported in article PMC4961458 (eLife, 2016).
Like-named read-outs stand apart in the source and are kept apart here.

How the values were obtained:
MCF7 ER.WT cells = assay: Cell viability, MCF7 ER.WT cells (7 days); assay type: cell-based; details: Homo sapiens; for EC50: absence of estrogen; for IC50: presence of estrogen (0.1 nM), read-out: Cell viability IC50, ER.WT +E2
[1] = system: Ishikawa endometrial cells; assay: Alkaline phosphatase activity in Ishikawa endometrial cells; assay type: cell-based, human; details: absence of estrogen
GR = target: T1, GR (Homo sapiens, UniProt P04150); assay: GR competitive radioligand binding assay
T1 sequence (P04150 1-777): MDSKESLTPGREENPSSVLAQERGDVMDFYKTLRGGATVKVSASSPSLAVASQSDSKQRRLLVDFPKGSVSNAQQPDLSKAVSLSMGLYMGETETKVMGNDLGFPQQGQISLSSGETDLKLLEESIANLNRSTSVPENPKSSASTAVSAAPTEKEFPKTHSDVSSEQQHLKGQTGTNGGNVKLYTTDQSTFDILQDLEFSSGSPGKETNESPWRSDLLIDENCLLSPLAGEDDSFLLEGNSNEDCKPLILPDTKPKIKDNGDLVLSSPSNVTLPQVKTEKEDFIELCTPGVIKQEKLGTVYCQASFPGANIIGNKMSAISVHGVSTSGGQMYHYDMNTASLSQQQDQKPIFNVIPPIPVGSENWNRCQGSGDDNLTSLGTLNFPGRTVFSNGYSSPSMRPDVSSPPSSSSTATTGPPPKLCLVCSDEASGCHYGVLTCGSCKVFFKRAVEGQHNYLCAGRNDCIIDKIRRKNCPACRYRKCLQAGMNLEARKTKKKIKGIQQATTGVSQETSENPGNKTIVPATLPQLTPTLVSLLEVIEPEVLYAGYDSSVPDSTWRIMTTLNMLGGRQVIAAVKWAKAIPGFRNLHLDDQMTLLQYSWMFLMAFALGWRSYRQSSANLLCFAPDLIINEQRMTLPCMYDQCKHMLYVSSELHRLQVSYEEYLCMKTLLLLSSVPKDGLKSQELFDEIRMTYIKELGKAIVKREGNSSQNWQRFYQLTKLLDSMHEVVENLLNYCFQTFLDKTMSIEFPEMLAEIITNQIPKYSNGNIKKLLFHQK
Procedure: Reactions were conducted in 96-well plates in TEGM (10 mM Tris-HCl pH 7.2, 1 mM EDTA, 10% glycerol, 1 mM β-mercaptoethanol, 10 mM sodium molybdate). […] All reactions were set up in duplicates and incubated at 4°C overnight. Receptor-bound ^3H-DEX was isolated by ultrafiltration using a Unifilter-96 GF/C filter plate (Perkin Elmer), eluted in 30 µL Microscint-20 and quantified using a scintillation counter (Top Count).

MCF7 cells = assay: MCF7 cell viability assay (CellTiter-Glo); assay type: cell-based, human; details: for IC50 / EC50: Homo sapiens; for EC50: absence of exogenous estradiol, Figure 1E, read-out: MCF7 cell viability EC50 (-E2)
[2] = system: Doxycycline-inducible MCF7 cells over-expressing ER (ER.WT); assay: Cell viability, doxycycline-inducible ER over-expressing MCF7 cells; assay type: cell-based; details: Homo sapiens, MCF7, 168 h, 7 days; for IC50: 0.1 nM E2, 10 ng/ml doxycycline; for EC50: estrogen-depleted medium, 10 ng/ml doxycycline, read-out: Cell viability EC50, ER.WT -E2
TamR1 tumors = system: TamR1 tumors; set-up: method as in Lai et al., 2015; details: 0.72 mg 60 day release E2 pellets; GDC-0810 p.o. 100 mg/kg/day; fulvestrant SC 200 mg/kg 3x/week; ref Lai et al., 2015; cited from earlier work
[3] = system: HCI-003 patient derived xenograft tumors; assay: HCI-003 patient derived xenograft efficacy; assay type: in vivo, mice; details: for Tumor growth response, HCI-003 PDX: 1 mg E2 beeswax pellets, GDC-0810 10 and 100 mg/kg/day p.o., fulvestrant 200 mg/kg 3x/week s.c., 43 days
Text: Like MCF7, HCI-003 tumors are ER+, E2 dependent and tamoxifen sensitive (Figure 4—figure supplement 1C). […] Lack of efficacy in this ER-negative model is consistent with the GDC-0810 mechanism of action being selectively mediated through ER.
The HCI-003 model was established at the University of Utah, Huntsman Cancer Center via direct implantation of both primary tumor material into immune compromised mice ([DeRose et al., 2011]). HCI-003 is wild-type at the ESR1 ligand binding domain. Exogenous estradiol is required for robust growth of this patient derived tumor line, and is supplied in the form of estradiol impregnated beeswax pellets. Tumor fragments obtained from the Huntsman Cancer Center were surgically implanted into the cleared mammary fat pad of 19 day old female NOD.CB17-Prkdc^scid/NcrCrl mice (Charles River Laboratories). The right mammary fat pad of recipient animals was exposed by a 1 cm incision on the ventral mid-line at the level of the fourth mammary. The blood vessels were cauterized and the fat pad blunt dissected from the abdominal wall and skin. Tumor fragments were excised from donor animals, chopped into fragments approximately 8 mm^3 (2 × 2 × 2 mm), implanted in the region of the cleared mammary fat pad, and the incision was closed with wound clips. Estradiol impregnated beeswax pellets were implanted subcutaneously into the interscapular space of recipient animals on the day of tumor implant. Recipient animals were ovariectomized 19 days after tumor fragment implant. One group of animals was designated as a control for estradiol independent tumor growth (Vehicle-E2) and the estradiol impregnated pellets were excised on the first day of dosing. All mice were housed and maintained according to the animal-use guidelines of the Institutional Animal Care and Use Committee (IACUC), conforming to California State legal and ethical practices.

[4] = MCF7, 168 h, 7 days, read-out: Cell viability EC50, ER.WT -E2
[5] = 120 h, MCF7, 5 d incubation, read-out: Cell viability CellTiter-Glo IC50
[6] = MCF7, 120 h, read-out: MCF7 cell viability IC50 (+ 0.1nM E2), presence of 0.1 nM estradiol, 5 day, Figure 1F

| SMILES | EC50 (MCF7 ER.WT cells; [4]) | IC50 (MCF7 ER.WT cells; MCF7, 168 h, 7 days) | Alkaline phosphatase activity [1] | IC50 (GR; 3.0 nM 3H-dexamethasone, read-out: GR IC50) | IC50 (MCF7 cells; [5]) | IC50 (MCF7 cells; [6]) | EC50 (MCF7 cells; MCF7, 120 h, 5 day) | Cell viability CellTiter-Glo Emax (MCF7 cells; MCF7, 5 d incubation) | IC50 [2] | EC50 [2] | Tumor growth response, TamR1 xenograft, high E2 (TamR1 tumors) | IC50 (GR) | Tumor growth response, HCI-003 PDX [3] | Anti-tumor activity, HCI-003 PDX (Figure 4—figure supplement 1C) ([3]; tamoxifen 60 mg/kg/day orally, fulvestrant 200 mg/kg 3x/week, 38 days) | EC50 (MCF7 ER.WT cells; MCF7, Figure 6—figure supplement 1D, read-out: Cell viability EC50, ER.WT (-E2)) |
| --- | --- | --- | --- | --- | --- | --- | --- | --- | --- | --- | --- | --- | --- | --- | --- |
| CC/C(=C(\c1ccc(O)cc1)c1ccc(OCCN(C)C)cc1)c1ccccc1 [4-OH Tam, 4-hydroxytamoxifen] | 3.2 nM | 19 nM | robustly increases alkaline phosphatase activity | > 1800 nM | 0.53 ± 0.25 nM | 30 nM | 3.9 nM | 48.0 ± 4.7 % E2 | – | – | – | – | – | – | – |
| C[C@]12CC[C@@H]3c4ccc(O)cc4C[C@@H](CCCCCCCCC[S+]([O-])CCCC(F)(F)C(F)(F)F)[C@H]3[C@@H]1CC[C@@H]2O (stereo partly drawn) [Fulvestrant] | 1.1 nM | 23 nM | shows no such effect | – | 0.56 ± 0.7 nM | 9 nM | 0.5 nM | 25.4 ± 3.7 % E2 | 11 nM | 1.2 nM | only modest tumor growth inhibition | 817 nM | induced tumor regression | display anti-tumor activity | – |
| CC/C(=C(/c1ccc(/C=C/C(=O)O)cc1)c1ccc2[nH]ncc2c1)c1ccc(F)cc1Cl [GDC-0810] | 1 nM | 28 nM | modestly increases alkaline phosphatase activity | – | 2.5 ± 2.1 nM | 25 nM | 1 nM | 24.6 ± 3.3 % E2 | 19 nM | 0.8 nM | induced tumor regressions | – | drove tumor stasis | – | 0.7 nM |
